Assay results from US4943574A, “(1H-azol-1-ylmethyl) substituted benzotriazole derivatives and pharmaceutical compositions containing them” (Janssen Pharmaceutica N.V., priority 1989, dated 1990).

Assays:
aromatase [1] = conditions: reported in Biochemical Pharmacology, 34, 1087 (1985); cited from earlier work
aromatase [2] = assay: In vivo-inhibition of the aromatase activity (plasma estradiol in PMSG-injected immature female Wistar rats); parameters: species or system rat (immature female Wistar rats); conditions: 1 mg/kg oral gavage, two hours following administration, PMSG-injected immature female Wistar rats
Protocol: Immature female Wistar rats weighing 120 g were injected subcutaneously with 200 I.U. of pregnant mare's serum gonadotropin (PMSG). […] Control animals received 20% polyethyleneglycol only. Two hours following drug or placebo administration the rats were killed by decapitation and trunk blood was collected on heparine. Plasma estradiol concentrations were measured by standard radio-immunological procedures.

aromatase [3] = molecular target: T1, aromatase (Homo sapiens, UniProt P11511); assay: biochemical; conditions: human placental microsomes, 30 min at 37° C., pH 7.4, 1,2[3H]androstenedione; read-out: IC50-values (concentration of the compound required to obtain 50% inhibition of the estrogen synthesis)
T1 sequence (P11511 1-503): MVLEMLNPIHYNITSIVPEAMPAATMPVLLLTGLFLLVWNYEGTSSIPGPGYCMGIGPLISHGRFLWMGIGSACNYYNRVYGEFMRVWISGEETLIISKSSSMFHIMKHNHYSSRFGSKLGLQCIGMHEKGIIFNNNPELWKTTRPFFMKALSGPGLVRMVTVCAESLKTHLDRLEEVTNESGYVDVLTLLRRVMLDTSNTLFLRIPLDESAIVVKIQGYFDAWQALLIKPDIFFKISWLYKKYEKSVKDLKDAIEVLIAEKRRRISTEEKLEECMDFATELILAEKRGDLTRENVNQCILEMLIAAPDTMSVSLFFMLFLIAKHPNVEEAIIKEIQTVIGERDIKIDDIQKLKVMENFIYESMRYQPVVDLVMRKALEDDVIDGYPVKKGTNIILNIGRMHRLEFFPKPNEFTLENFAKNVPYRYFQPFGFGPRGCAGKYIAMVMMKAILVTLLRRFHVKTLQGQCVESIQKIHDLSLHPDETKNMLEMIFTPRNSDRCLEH
Protocol: Human placental microsomes were diluted in potassium phosphate buffer (0.1M, pH 7.4) to give about 50% conversion of androgens to estrogens (protein content: about 0.5 mg). Four ml human placental microsomes were incubated in a final volume of 5 ml with 0.2 μCi1,2[3H]-androstenedione, 2 μg androstendione and 5 μl of test compound and/or dimethyl sulfoxide (DMSO). […] The reaction was initiated by the addition of androstenedione and proceeded for 30 min at 37° C. During the incubation period, the mixtures were gassed with air. In this assay, aromatization of androstenedione results in the production of [3H]-H2 O which is isolated by extracting the samples with chloroform to remove the free steroid.

| Compound | inhibition of the action of the enzyme aromatase (in words) (aromatase [1]) | % recovery estradiol (plasma estradiol relative to the controls) (aromatase [2]) [%] | IC50 (aromatase [3]) [µM] |
| --- | --- | --- | --- |
| CC(=O)N1CCN(c2ccc(OCC3COC(Cn4ccnc4)(c4ccc(Cl)cc4Cl)O3)cc2)CC1 (stereo not drawn) [ketoconazole] | inhibit the action of the enzyme aromatase |  |  |
| Clc1ccccc1C(c1ccccc1)(c1ccccc1)n1ccnc1 [clotrimazole] | inhibit the action of the enzyme aromatase |  |  |
| Clc1ccc(COC(Cn2ccnc2)c2ccc(Cl)cc2Cl)c(Cl)c1 (stereo not drawn) [miconazole] | inhibit the action of the enzyme aromatase |  |  |
| CC(C)n1nnc2ccc(C(c3ccccc3)n3ccnc3)cc21.O=C(O)C(=O)O (stereo not drawn) [Compound 76, 6-[(1H-imidazol-1-yl)phenylmethyl]-1-(1-methylethyl)-1H-benzotriazole ethanedioate(1:1)] |  | 9 | 0.0347 |
| CC(C)CCn1nnc2ccc(Cn3ccnc3)cc21 [Compound 93] |  | 8 | 0.0105 |
| c1cn(Cc2ccc3nnn(C4CCCC4)c3c2)cn1 [Compound 107] |  | 6 | 0.0141 |
| c1cn(Cc2ccc3nnn(CC4CCCCC4)c3c2)cn1 [Compound 97] |  | 10 | 0.0131 |
| c1ccc2c(c1)CCCC2n1nnc2ccc(Cn3ccnc3)cc21 (stereo not drawn) [Compound 105] |  | 14 | 0.0198 |
| c1cn(Cc2ccc3nnn(C4CCCCCC4)c3c2)cn1 [Compound 100] |  | 3 | 0.0143 |
| c1ccc(CCn2nnc3ccc(Cn4ccnc4)cc32)cc1 [Compound 92] |  | 15 | 0.0087 |
| c1ccc2c(c1)CCC2n1nnc2ccc(Cn3ccnc3)cc21 (stereo not drawn) [Compound 115] |  | 22 | 0.0144 |
| Cn1nnc2ccc(C(c3ccccc3Cl)n3ccnc3)cc21 (stereo not drawn) [Compound 56] |  | 8 | 0.0215 |
| Clc1ccc(C(c2ccc3nnn(C4CCCCC4)c3c2)n2ccnc2)cc1 (stereo not drawn) [Compound 117] |  | 9 | 0.0125 |
| c1ccc(CCCOn2nnc3ccc(Cn4ccnc4)cc32)cc1 [Compound 207] |  | 26 | 0.0073 |
| Cn1nnc2ccc(C(c3ccsc3)n3ccnc3)cc21 (stereo not drawn) [Compound 69, 6-[(1H-imidazol-1-yl) (3-thienyl)methyl]-1-methyl-1H-benzotriazole] |  | 5 | 0.029 |
| Fc1cccc(Cn2nnc3ccc(Cn4ccnc4)cc32)c1 [Compound 99] |  | 11 | 0.0178 |
| CCCCn1nnc2ccc(Cn3ccnc3)cc21 [Compound 147, 1-butyl-6-(1H-imidazol-1-ylmethyl)-1H-benzotriazole] |  | 21 | 0.0076 |
| Cn1nnc2ccc(C(c3ccc(Cl)cc3)n3ccnc3)cc21 (stereo not drawn) [Compound 30] |  | 7 | 0.0222 |
| C=CCn1nnc2ccc(Cn3ccnc3)cc21 [Compound 106] |  | 8 | 0.0244 |
| CCC(C)n1nnc2ccc(Cn3ccnc3)cc21 (stereo not drawn) [Compound 101] |  | 7 | 0.0174 |
| CCCCn1nnc2ccc(C(c3ccc(F)cc3)n3ccnc3)cc21 (stereo not drawn) [Compound 17] |  | 7 | 0.0182 |
